Experimental data reported in patent US11976055B1, “2-(1-(3-(dimethylamino)propyl)-4,5-diphenyl-1H-imidazol-2-yl)pyridin-3-ol as an antitumor and antimicrobial compound” (KING FAISAL UNIVERSITY, priority 2023, dated 2024).

Assays:
[1] = system: human prostate cancer cells (PC3); assay: Cytotoxicity by SRB assay, PC3 cells; format: cell-based; conditions: androgen-independent metastatic human prostate cancer cells (PC3), 0.01 μM to 100 μM, 72 h
Description: (§1) The human prostate cancer cells (PC3) and human osteosarcoma cells (MG-63) were obtained from Nawah Scientific Inc. (Mokatam, Cairo, Egypt) and cultured in DMEM (Dulbecco's modified eagle's medium), Gibco, USA, supplemented with fetal bovine serum (FBS) at a concentration of 10% and 100 U/mL of penicillin and streptomycin (PS). The Cells were incubated at 37° C. in a humidified environment that contained 5% CO2. Cells were seeded in 96-well plates as aliquots of 100 μL cell suspension and incubated in a complete media for 24 h. afterward, cells were treated with 2-(1-(3-(Dimethylamino)propyl)-4,5-diphenyl-1H-imidazol-2-yl)pyridin-3-ol at diverse concentrations ranging from 0.01 μM to 100 μM for 72 h. […] Then, 150 μL of Tris pH 10.5 (10 mM) was added, and the absorbance was measured at 540 nm using a BMG LABTECH®-FLUOstar Omega microplate reader (Ortenberg, Germany). Half maximal inhibitory concentrations (IC50) values were calculated for each experiment using GraphPad Prism 6 software. […] The inhibition was calculated using the following equation: Inhibition %=100−Average Viability The anticancer activity of 2-(1-(3-(Dimethylamino)propyl)-4,5-diphenyl-1H-imidazol-2-yl)pyridin-3-ol was assessed against highly aggressive androgen-independent metastatic human prostate cancer cells (PC3) and osteosarcoma (MG-63) cells.

[2] = system: human osteosarcoma cells (MG-63); assay: Cytotoxicity by SRB assay, MG-63 cells; format: cell-based; conditions: osteosarcoma (MG-63) cells, 0.01 μM to 100 μM, 72 h
Description: as §1

With `CN(C)CCCn1c(-c2ncccc2O)nc(-c2ccccc2)c1-c1ccccc1` [2-(1-(3-(Dimethylamino)propyl)-4,5-diphenyl-1H-imidazol-2-yl)pyridin-3-ol] the “antiproliferative activity against PC3 cells” value [1] was “excellent antiproliferative activities”, the “antiproliferative activity against MG-63 cells” value [2] was “excellent antiproliferative activities” and the melting point was 133 to 135 °C.
